# Tests used:
# CYP3A4 = assay: in vitro microsomal metabolism of taxane by human liver microsomes; assay type: in vitro ADME; settings: for metabolism of docetaxel (DTX) by human liver microsomes: PPL added in reaction mixture with DTX
# Description: In FIG. 1A, in vitro microsomal metabolism studies of DTX by human liver microsomes were carried out in combination with PPL and compared with a known standard CYP3A4 inhibitor, Cyclosporin A (CYA).
# MDA-MB-231 cell line = assay: in vitro migration assay; assay type: cell-based
# Text: FIG. 2C depicts in vitro migration assay on MDA-MB-231 cell line.
# [1] = in vivo oral pharmacokinetic in SD rats; settings: coadministration with PPL vs DTX alone
# Caco-2 monolayer = assay: permeability and efflux across Caco-2 monolayer; settings: co-treated with piperlongumine
# Text: In FIG. 1B, Caco-2 is colon carcinoma cells used to evaluate the permeability and efflux of drug in GI track.
# [2] = cancer cell lines, with piperlongumine
smiles,measurement,setting,value
"COc1cc(/C=C/C(=O)N2CCC=CC2=O)cc(OC)c1OC [PPL, piperlongumine]",metabolism of docetaxel (DTX) by human liver microsomes,CYP3A4,significantly reduced
same,metabolism of docetaxel (DTX) by human liver microsomes,CYP3A4; listed as Piperlongumine,reduction
same,half-life of DTX,"CYP3A4; human liver microsomes, PPL added in reaction mixture",doubled
same,CYP3A4 inhibition,"CYP3A4; human liver microsomes, compared with Cyclosporin A (CYA)",comparable to inhibitor CYA
same,metabolism of paclitaxel by human microsomal enzyme,CYP3A4; with piperlongumine,reduction
same,% bridging of migration area,MDA-MB-231 cell line; MDA-MB-231 cell line,significant reduction
same,anti-migration effect of docetaxel,MDA-MB-231 cell line; [2],enhanced
same,anti-migration effect of paclitaxel,MDA-MB-231 cell line; [2],enhanced
same,oral bioavailability of docetaxel (DTX),[1],significant enhancement
same,oral bioavailability of docetaxel (DTX),[1]; listed as Piperlongumine,significantly enhanced
same,permeability co-efficient of docetaxel,Caco-2 monolayer,enhancement
